Each structure is given as a SMILES string.

In data set [1] the test system is mice. Briefly: Feeding trials with various acute poisons in formulation C particles (Example 11), mice. It counts as in vivo. To be noted: MOUSE; formulation C particle 0.45 × 0.45 mm; bait conc. 22.5 ppm. As for the experimental part: (§1) Particles containing various acute poisons were made according to Formulation C, and feeding trials were carried out with rats and with mice.

The subject of data set [2] is Rats. The experiment in a line: Feeding trials with various acute poisons in formulation C particles (Example 11), rats. Format: in vivo. The note with it: RAT, formulation C particle 1.5 × 1.5 mm. As for the experimental part: as §1
A further data set concerns female Wistar rats. The experiment in a line: Feeding test of totally homogeneous aldicarb bait (Example 1), rats. Format: in vivo, rat. The note with it: for Kill Rat: 100 ppm aldicarb in medium oatmeal, 5 female Wistar rats. From the text:
(§2) Except where otherwise stated, baits according to the invention were produced by thoroughly hand mixing the particles with medium oatmeal, and the baits were fed to caged rats and mice as the sole feed. Water was made freely available to them. The baits remaining in each cage were weighed daily, and fresh baits provided each day.
(§3) Totally homoneneous baits were produced by slurrying an acetone solution of aldicarb on medium oatmeal to give a concentrate, then diluting the concentrate with medium oatmeal by hand mixing, to give an aldicarb concentration of 100 ppm. The toxicity of the resulting bait was determined by tests on 5 female Wistar rats and 10 male LACA mice.

The subject of data set [3] is male LACA mice. Briefly: Feeding test of totally homogeneous aldicarb bait (Example 1), mice. It counts as in vivo, mouse. The note with it: for Kill Mouse: 100 ppm aldicarb in medium oatmeal, 10 male LACA mice.
Text: as §2, §3

A further data set concerns Wistar females. The experiment in a line: Feeding test of formulation A 1.25 mg particles in oatmeal (Example 2). To be noted: one 1.25 mg pellet per 20 grams of oatmeal, 5 Wistar females. It counts as in vivo, rat. Here is the method:
as §2
The toxicity of aldicarb particles made to formulation A was determined by tests on 5 Wistar females exposed to medium oatmeal containing one 1.25 mg pellet per 20 grams of oatmeal.

For data set [4], the system named is Heterozygous anti-coagulant resistant rats. The experiment in a line: Feeding test of formulation A 1.25 mg particles in oatmeal (Example 3). Format: in vivo, rat. To be noted: one 1.25 mg particle per 20 grams of oatmeal, bait not changed daily, 5 heterozygous anti-coagulant resistant rats. Here is the method:
as §2
5 Heterozygous anti-coagulant resistant rats were allowed to feed on bait consisting of medium oatmeal containing one 1.25 mg particle made to formulation A per 20 grams of oatmeal. The bait was weighed daily, but in this example it was not changed daily.

The test system of data set [5] is male LACA mice. The experiment in a line: Feeding test of formulation A 0.5 mg particles in oatmeal (Example 4). Format: in vivo, mouse. The note with it: 10 male LACA mice. Here is the method: as §2
10 Male LACA mice were fed with bait consisting of medium oatmeal containing one 0.5 mg particle made according to formulation A per 10 grams of oatmeal.

For data set [6], the system named is male LACA mice. Briefly: Feeding test of formulation A 0.2 mg particles in oatmeal (Example 5). Format: in vivo, mouse. The note with it: 10 male LACA mice. As for the experimental part: as §2
10 Male LACA mice were permitted to feed on bait consisting of medium oatmeal containing one 0.2 mg particle of formulation A per-2 grams of oatmeal.

Data set [7] deals with male LACA mice. Briefly: Feeding test of formulation B 0.2 mg particles in oats (Example 6). It counts as in vivo, mouse. To be noted: 50 g medium oats with 10 particles of formulation B, 0.2 mg aldicarb each; 5 male LACA mice starved for 24 hours; Day 1. Here is the method:
as §2
5 Male LACA mice were starved for 24 hours and then permitted to feed on 50 g of medium oats containing dispersed therein 10 particles of formulation B each containing 0.2 mg of aldicarb.

The subject of data set [8] is Male heterozygous resistant rats. Briefly: Feeding test of formulation B 1.1 mg particles in oatmeal (Example 7). Format: in vivo, rat. The note with it: 50 g medium oatmeal with 10 particles of formulation B, 1.1 mg aldicarb each; 3 male heterozygous resistant rats; Day 1. Here is the method: as §2
3 Male heterozygous resistant rats were permitted to feed on 50 g medium oatmeal containing 10 particles of formulation B each containing 1.1 mg of aldicarb.

The subject of data set [9] is female 300-350 gram Wistar rats. Briefly: Feeding test of mouse bait particles on rats (Example 8). Format: in vivo, rat. To be noted: for Mouse bait particles Rat Kill: 0.1 mg aldicarb particles, one per two grams of oatmeal (50 ppm), five female Wistar rats. Here is the method:
(§4) Particles of a size suitable for consumption whole (without nibbling) by mice, i.e. about 0.5 mm diameter spheres, containing 0.1 mg of aldicarb per particle were produced by a precipitation process.
(§5) The mouse bait particles were distributed in medium oatmeal at the concentration of one per two grams of oatmeal (50 ppm), and the rat bait particles were distributed in medium oatmeal at the concentration of one per twenty grams of oatmeal (50 ppm).
(§6) Ten male 12-18 gram LAC mice and five female 300-350 gram Wistar rats were permitted to feed on the mouse bait; and five female 300-350 gram Wistar rats were allowed to feed on the rat bait. The baits were topped up when necessary to keep a supply of food material available, and water was supplied freely.

Another data set deals with male 12-18 gram LAC mice. The experiment in a line: Feeding test of mouse bait particles on mice (Example 8). It counts as in vivo. The note with it: for Mouse bait particles Mouse Kill: 0.1 mg aldicarb particles, one per two grams of oatmeal (50 ppm), ten male LAC mice. As for the experimental part: as §4, §5, §6
In data set [10] the test system is female 300-350 gram Wistar rats. The experiment in a line: Feeding test of rat bait particles on rats (Example 8). To be noted: for Rat bait particles Rat Kill: 1.0 mg aldicarb particles, one per twenty grams of oatmeal (50 ppm), five female Wistar rats. It counts as in vivo. As for the experimental part: Suitably larger particles appropriate for rats, i.e. about 1 mm x 1 mm cylinders, containing 1.0 mg of aldicarb per particle were produced by extrusion.
as §5, §6

In data set [11] the test system is mice with a body weight approximately 20 g. The experiment in a line: No-choice feeding test of three 100 ppm aldicarb presentations (Example 9), mice. It counts as in vivo, mouse. The note with it: for Mouse Kill %: no choice, after 5 days. As for the experimental part:
(§7) Three baits were produced containing the toxicant aldicarb, each at 100 ppm (0.01%) concentration. Aldicarb was presented in the bait either homogeneously dispersed in the manner of a conventional rodenticide, as discrete 0.4 x 0.4 mm particles, (formulation C) or as discrete 1.0 x 1.0 mm particles. The diluent was medium grade oatmeal in all cases. Tests were carried out on mice with a body weight approximately 20 g, rats with a body weight approximately 250 g, and rabbits with a body weight approximately 2,500 g.
(§8) Baits were offered with no choice of alternative food for five days.

Data set [12] has as its system rats with a body weight approximately 250 g. The experiment in a line: No-choice feeding test of three 100 ppm aldicarb presentations (Example 9), rats. It counts as in vivo, rat. To be noted: after 5 days. Here is the method:
as §7, §8

The next data set in a line: in vivo. It counts as in vivo, rabbit. The note with it: rabbit, in vivo, po; 100 ppm as HOMOGENEOUS; no choice, after 5 days; read-out: Rabbit Kill %. As for the experimental part: as §7, §8
Data set [13] deals with rabbits with a body weight approximately 2,500 g. The experiment in a line: in vivo. The note with it: 100 ppm aldicarb; any of the three formulations. Format: in vivo, rabbit. Here is the method: as §7, §8
Data set [14] deals with Rats. The experiment in a line: Determination of optimum particle size (Example 10), rats. To be noted: formulation C, one particle per 10 g diet base, after 5 days. Format: in vivo, rat. The text has this:
(§9) Rats were offered medium oatmeal diet containing aldicarb particles (formulation C) at the rate of one per 10 g diet base and mice were offered the particles at the rate of one per 4 g diet base.

Data set [15] has as its system mice. The experiment in a line: Determination of optimum particle size (Example 10), mice. Format: in vivo, mouse. To be noted: formulation C, one particle per 4 g diet base, after 5 days.
Text: as §9

Setting [16] is: formulation A 0.5 mg aldicarb particles, 4 days.
Setting [17] is: 100 ppm as 0.4 × 0.4 mm particles (formulation C).
The mark [18] stands for this setting: 100 ppm as 1.0 × 1.0 mm particles.

For the molecule `Cc1cc(N(C)C)nc(Cl)n1` [CRIMIDINE, 2 chloro-4-(dimethylamino)-6-methylpyrimidine], in the data set with mice [1], the “DAYS TO KILL” value was 5 days and the Kill (%) was 100%. In the data set with Rats [2] (bait conc. 250 ppm), the “DAYS TO KILL” value worked out at 3 days and the Kill (%) is reported as 100%.

As to `CC(=O)O[C@@H]1C[C@]2(O)[C@H](CC[C@]3(C)[C@@H](c4ccc(=O)oc4)CC[C@@]32O)[C@@]2(C)CC[C@H](O[C@@H]3O[C@H](CO)[C@@H](O)[C@H](O)[C@H]3O)C=C12` [SCILLIROSIDE, scilliroside], in the data set on Rats [2] (bait conc. 50 ppm), the “DAYS TO KILL” value was found to be 2 days and the Kill (%) was 100%.

On to `O=C(O)CF` [SODIUM FLUOROACETATE, Sodium fluoroacetate], for which, in the data set with Rats [2] (bait conc. 250 ppm), the “DAYS TO KILL” value is 2 days and the Kill (%) was found to be 100%.

For the molecule `CNC(=O)O/N=C/C(C)(C)SC` [aldicarb, 2 methyl-2-(methylthio) propionaldehyde 0-(methylcarbamoyl) oxime], the “Kill Rat” value with female Wistar rats (Day 1), with female Wistar rats (Day 2) and in the data set on female Wistar rats (Day 3) was 0 out of 5 in each case. Also, the kills recorded entry is “no kills” in the data set with female Wistar rats (100 ppm aldicarb, rats, after 3 days exposure) and “no kills” with male LACA mice [3] (100 ppm aldicarb, mice, after 4 days exposure). For the same molecule, the “Kill Mouse” value in the data set on male LACA mice [3] (Day 1), in the data set on male LACA mice [3] (Day 2), in the data set with male LACA mice [3] (Day 3) and in the data set on male LACA mice [3] (Day 4) was 0 out of 10 throughout. Further, the Kill with Wistar females (Day 1) was 2 out of 5; with Wistar females (Day 3), “Remaining rat killed”; in [4] (Day 1), 3 out of 5; in [4] (Day 3), “Remaining rat killed”; with male LACA mice [5] (setting [16]) it was 40%; in the data set on male LACA mice [5] (formulation A, one 0.5 mg particle per 10 grams of oatmeal, Day 1) it was 1 out of 10. The Kill in the data set with male LACA mice [6] (formulation A 0.2 mg aldicarb particles, Example 5) was 100%; in the data set on male LACA mice [6] (formulation A, one 0.2 mg particle per 2 grams of oatmeal, Day 1), 4 out of 10; with male LACA mice [7], 2 out of 5; in data set [8], “All killed”. Moreover, the “mice killed (total of Example 4)” value in the data set with male LACA mice [5] (setting [16]) is on record as 4 out of 10. Moreover, the “Mouse bait particles Rat Kill” value in data set [9] (Day 1), in data set [9] (Day 2), in [9] (Day 3), in data set [9] (Day 4) and in data set [9] (Day 5 to 7) was 0/5 each time. In addition, the “kill of rats feeding on the mouse bait” value in [9] (0.1 mg particles, 50 ppm bait, seven days of feeding) is reported as “not killed even after seven days”. Moreover, the figures for the “Mouse bait particles Mouse Kill” value in the data set with male 12-18 gram LAC mice (Day 1) and in the data set with male 12-18 gram LAC mice (Day 3) were 4 out of 10 and “Remaining mouse died”, respectively. Moreover, the “death of all animals” value in the data set on male 12-18 gram LAC mice (all mice feeding on the 0.1 mg particles, 50 ppm bait) was “died by the end of the third day”; in [10] (all rats feeding on the 1 mg particles, 50 ppm bait), “died by the end of the third day”. The “Rat bait particles Rat Kill” value in data set [10] (Day 1) was 2 out of 5; in [10] (Day 3), “Remaining rat died”. Moreover, in data set [11] (100 ppm aldicarb on 0.4 x 0.4 mm particles), the death of mice result was “All mice died”. Also, the figures for the “Mouse Kill %” value in data set [11] (setting [17]), in [11] (setting [18]) and in data set [11] (100 ppm as HOMOGENEOUS) were 100%, 30% and 0%, respectively. The figures for the “Rat Kill %” value in data set [12] (setting [17]), in data set [12] (setting [18]) and in [12] (100 ppm as HOMOGENEOUS) were 0%, 100% and 0%, respectively. Besides, the mortality at 120 h in the data set “in vivo” stood at 0%. Moreover, the death of rabbits result in data set [13] is listed as “No rabbits died”. Also, the “Kill (%)” value in the data set on Rats [14] (60—80 g Weaner RATS, particle 0.75 × 0.75 mm) stood at 100%; with Rats [14] (60—80 g Weaner RATS, particle 1.0 × 1.0 mm) it was 100%; with Rats [14] (60—80 g Weaner RATS, particle 1.5 × 3.0 mm), 80%; in the data set with Rats [14] (300—400 g Adult RATS, particle 0.75 × 0.75 mm), 50%; in the data set on Rats [14] (300—400 g Adult RATS, particle 1.0 × 1.0 mm), 100%; in the data set on Rats [14] (300—400 g Adult RATS, particle 1.5 × 3.0 mm) it was 100%. Also, the “Kill (%)” value is 60% in the data set on mice [15] (12—10 g. Weaner MICE, particle 0.2 × 0.5 mm); 100% in the data set on mice [15] (12—10 g. Weaner MICE, particle 0.4 × 0.4 mm); 70% in the data set on mice [15] (12—10 g. Weaner MICE, particle 0.5 × 0.5 mm); 57% in the data set with mice [15] (12—10 g. Weaner MICE, particle 0.75 × 0.75 mm); 0% with mice [15] (20—25 g Adult MICE, particle 0.2 × 0.5 mm); 100% in the data set on mice [15] (20—25 g Adult MICE, particle 0.4 × 0.4 mm). Further, the “Kill (%)” value in the data set on mice [15] (20—25 g Adult MICE, particle 0.5 × 0.5 mm) came out at 100%.

Source of the values: EP0109697B1, “Rodent bait” (priority 1982, dated 1984).
